These are literature values, as cited in US10376519B2, “Tricyclic lactams for use in HSPC-sparing treatments for Rb-positive abnormal cellular proliferation” (G1 Therapeutics, Inc., priority 2014, dated 2019).

The conditions of data set [1]: in vivo.
For data set [2] the following is noted: Grade 3/4 neutropenia and leukopenia, clinical trial studies.

On to `CC(=O)c1c(C)c2cnc(Nc3ccc(N4CCNCC4)cn3)nc2n(C2CCCC2)c1=O` [palbociclib, 6-acetyl-8-cyclopentyl-5-methyl-2-(5-piperazin-1-yl-pyridin-2-ylammino)-8H-pyrido-[2,3-d]-pyrimidin-7-one], for which, in data set [1], the T1/2 entry is “roughly 26.7 hours”. In data set [2], the “patients requiring a dose interruption” value is 71% and the “patients requiring a dose reduction” value is recorded as 35%.
